Reference: US9376436B2, “2-(pyridin-2yl)-1, 7-diaza-spiro [4.4] nonane-6-one compound as voltage-gated sodium channels modulators” (CONVERGENCE PHARMACEUTICALS LIMITED, priority 2011, dated 2016)
Where a name gives a salt, the structure may show the parent alone. Read-outs that look alike come from different tables or passages of the source.

Target: T1, hNaV1.7 (Homo sapiens, UniProt Q15858)
T1 construct: expressed in transfected cells; host or cells: HEK293
Experiment: QPatch NaV1.7 assay (whole-cell patch clamp, QPatch16x)
Type: cell-based
Conditions: HEK293-hNaV1.7 cells
Method in brief: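 Automated whole-cell recordings in hNaV1.7-expressing HEK293 cells, holding at either −90 mV (mostly closed channels) or the half-inactivation voltage. Compounds applied cumulatively at four concentrations for 120 s each; peak current on 20 ms depolarisation to 0 mV fitted by Hill equation to yield pIC50.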

[1] = holding voltage V1/2 SSI (half of channels inactivated), read-out: QP Nav1.7 SSI vhalf pIC50 (converted)
[2] = holding voltage −90 mV (most channels closed), read-out: QP Nav1.7 −90 mV pIC50 (converted)

T1 sequence (Q15858 whole entry): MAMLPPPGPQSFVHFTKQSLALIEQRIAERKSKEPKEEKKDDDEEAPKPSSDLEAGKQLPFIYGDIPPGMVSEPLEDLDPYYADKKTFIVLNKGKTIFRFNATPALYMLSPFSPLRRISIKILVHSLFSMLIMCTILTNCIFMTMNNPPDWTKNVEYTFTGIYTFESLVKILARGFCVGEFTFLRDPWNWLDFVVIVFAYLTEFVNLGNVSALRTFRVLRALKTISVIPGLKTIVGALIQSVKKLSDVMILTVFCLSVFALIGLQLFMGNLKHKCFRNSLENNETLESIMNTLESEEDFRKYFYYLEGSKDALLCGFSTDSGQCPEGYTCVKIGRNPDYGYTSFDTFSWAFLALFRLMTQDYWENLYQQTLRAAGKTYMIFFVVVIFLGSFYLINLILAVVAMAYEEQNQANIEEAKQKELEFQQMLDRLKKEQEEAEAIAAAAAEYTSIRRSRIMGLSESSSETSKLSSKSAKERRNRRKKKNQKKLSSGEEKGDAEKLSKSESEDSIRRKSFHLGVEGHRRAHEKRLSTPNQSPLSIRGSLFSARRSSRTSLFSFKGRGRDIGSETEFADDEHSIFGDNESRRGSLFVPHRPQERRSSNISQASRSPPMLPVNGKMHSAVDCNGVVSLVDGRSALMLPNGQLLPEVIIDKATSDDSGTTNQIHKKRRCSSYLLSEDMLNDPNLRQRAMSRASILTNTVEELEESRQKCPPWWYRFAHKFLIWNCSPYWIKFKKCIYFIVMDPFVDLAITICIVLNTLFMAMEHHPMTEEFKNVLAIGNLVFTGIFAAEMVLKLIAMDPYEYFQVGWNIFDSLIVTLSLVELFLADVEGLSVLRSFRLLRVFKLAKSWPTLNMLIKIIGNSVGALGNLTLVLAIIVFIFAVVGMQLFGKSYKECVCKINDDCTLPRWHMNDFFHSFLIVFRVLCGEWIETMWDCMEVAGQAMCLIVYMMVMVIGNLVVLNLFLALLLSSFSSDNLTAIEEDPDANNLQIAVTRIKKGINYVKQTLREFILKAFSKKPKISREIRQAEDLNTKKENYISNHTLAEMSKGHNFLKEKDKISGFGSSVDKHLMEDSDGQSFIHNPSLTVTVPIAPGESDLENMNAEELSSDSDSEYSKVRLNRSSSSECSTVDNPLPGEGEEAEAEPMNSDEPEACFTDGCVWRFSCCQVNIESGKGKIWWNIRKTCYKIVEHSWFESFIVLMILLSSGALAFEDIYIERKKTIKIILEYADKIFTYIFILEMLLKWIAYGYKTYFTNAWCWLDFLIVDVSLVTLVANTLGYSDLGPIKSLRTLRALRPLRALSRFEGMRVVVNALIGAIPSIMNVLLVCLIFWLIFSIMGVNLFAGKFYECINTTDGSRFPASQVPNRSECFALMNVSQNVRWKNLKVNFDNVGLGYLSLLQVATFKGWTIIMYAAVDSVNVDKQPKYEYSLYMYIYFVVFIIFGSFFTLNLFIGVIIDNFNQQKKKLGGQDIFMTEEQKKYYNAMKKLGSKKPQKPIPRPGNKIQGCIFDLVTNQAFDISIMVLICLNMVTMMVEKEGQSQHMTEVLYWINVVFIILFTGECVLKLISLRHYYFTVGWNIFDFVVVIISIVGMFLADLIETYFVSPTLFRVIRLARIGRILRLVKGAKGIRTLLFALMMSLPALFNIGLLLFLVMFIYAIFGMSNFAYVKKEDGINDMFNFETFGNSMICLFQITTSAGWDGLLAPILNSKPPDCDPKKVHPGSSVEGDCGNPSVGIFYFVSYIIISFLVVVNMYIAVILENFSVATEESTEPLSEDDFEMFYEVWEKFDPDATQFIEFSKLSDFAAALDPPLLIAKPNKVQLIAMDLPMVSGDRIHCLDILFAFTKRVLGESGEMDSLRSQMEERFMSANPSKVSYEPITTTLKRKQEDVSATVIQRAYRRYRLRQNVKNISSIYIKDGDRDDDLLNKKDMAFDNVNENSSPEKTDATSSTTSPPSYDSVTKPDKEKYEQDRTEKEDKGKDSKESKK

Compound	IC50 [1] [µM]	IC50 [2] [µM]
Cc1cnc([C@H]2CC[C@@]3(CCN(C)C3=O)N2)cc1-c1ccc(C(F)(F)F)cc1 [Example 41, (2R,5S)-7-Methyl-2-[5-methyl-4-[4-(trifluoromethyl)phenyl]-2-pyridyl]-1,7-diazaspiro[4.4]nonan-6-one hydrochloride]	2	25.1
CCn1ncc2cc(F)c(-c3ccnc([C@H]4CC[C@@]5(CCN(C)C5=O)N4)c3)cc21 [Example 258, (2R,5S)-2-[4-(1-Ethyl-5-fluoro-indazol-6-yl)-2-pyridyl]-7-methyl-1,7-diazaspiro[4.4]nonan-6-one hydrochloride]	31.6	39800
Cc1cc(-c2ccc(C(F)(F)F)cc2)cc([C@H]2CC[C@@]3(CCNC3=O)N2)n1 [Example 94, (2R,5S)-2-[6-Methyl-4-[4-(trifluoromethyl)phenyl]-2-pyridyl]-1,7-diazaspiro[4.4]nonan-6-one hydrochloride]	0.2	3.98
CN1CCC[C@@]2(CC[C@H](c3cc(-c4ccc(C(F)(F)F)cc4)ccn3)N2)C1=O [Example 67, (2R,5R)-7-Methyl-2-[4-(4-trifluoromethyl-phenyl)-pyridin-2-yl]-1,7-diaza-spiro[4.5]decan-6-one hydrochloride]	3.98	31.6
CC(C)Oc1ccc(-c2ccnc([C@H]3CC[C@@]4(CCN(C)C4=O)N3)c2)cc1C#N [Example 180, 2-Isopropoxy-5-[2-[(2R,5S)-7-methyl-6-oxo-1,7-diazaspiro[4.4]nonan-2-yl]-4-pyridyl]benzonitrile hydrochloride]	20	1000
CCOc1ccc(F)c(-c2ccnc([C@@H]3CC[C@@]4(CCN(C)C4=O)N3)c2)c1 [Example 147, (2S,5S)-2-[4-(5-Ethoxy-2-fluoro-phenyl)-2-pyridyl]-7-methyl-1,7-diazaspiro[4.4]nonan-6-one hydrochloride]	3.16	50.1
CCC(=O)c1ccc(F)c(-c2ccnc([C@H]3CC[C@@]4(CCN(C)C4=O)N3)c2)c1 [Example 257, (2R,5S)-2-[4-(2-Fluoro-5-propanoyl-phenyl)-2-pyridyl]-7-methyl-1,7-diazaspiro[4.4]nonan-6-one hydrochloride]	63.1	2510
CCOc1ccc(-c2ccnc([C@H]3CC[C@@]4(CCN(C)C4=O)N3)c2)cc1 [Example 76, (2R,5S)-2-[4-(4-Ethoxyphenyl)-2-pyridyl]-7-methyl-1,7-diazaspiro[4.4]nonan-6-one hydrochloride]	3.98	63.1
Cc1cc(-c2cc(C(F)(F)F)ccc2C#N)cc([C@H]2CC[C@@]3(CCN(C)C3=O)N2)n1 [Example 23, 2-[2-Methyl-6-[(2R,5S)-7-methyl-6-oxo-1,7-diazaspiro[4.4]nonan-2-yl]-4-pyridyl]-4-(trifluoromethyl)benzonitrile hydrochloride]	79.4	631
CCOc1ccc(-c2ccnc([C@H]3CC[C@@]4(CCN(C)C4=O)N3)c2)cc1OCC [Example 190, (2R,5S)-2-[4-(3,4-Diethoxyphenyl)-2-pyridyl]-7-methyl-1,7-diazaspiro[4.4]nonan-6-one hydrochloride]	100	10000
CCOc1cc(F)ccc1-c1ccnc([C@H]2CC[C@@]3(CCN(C)C3=O)N2)c1 [Example 169, (2R,5S)-2-[4-(2-Ethoxy-4-fluoro-phenyl)-2-pyridyl]-7-methyl-1,7-diazaspiro[4.4]nonan-6-one hydrochloride]	6.31	126
CCc1cccc(-c2cc(C)nc([C@H]3CC[C@@]4(CCN(C)C4=O)N3)c2)c1 [Example 205, (2R,5S)-2-[4-(3-Ethylphenyl)-6-methyl-2-pyridyl]-7-methyl-1,7-diazaspiro[4.4]nonan-6-one hydrochloride]	6.31	63.1
